Assay results reported in patent publication US20240210736A1, “MOUSE MYOPIA-INDUCED MODEL AND ENDOPLASMIC RETICULUM STRESS SUPPRESSANT FOR PREVENTING AND SUPPRESSING MYOPIA” (TSUBOTA LABORATORY, INC., priority 2017, published 2024).

What was measured:
[1] = test system: mouse myopia-induced model; assay: Mouse myopia-induced model (−30 D minus lens): suppression of myopia induction; details: for refractive value variation of lens-worn myopia-induced eyes vs PBS administered group / axial length of the eye variation of lens-worn myopia-induced eyes vs PBS administered group: three weeks; for refractive value variation of lens-worn myopia-induced eyes vs PBS administered group: FIG. 6 left; for axial length of the eye variation of lens-worn myopia-induced eyes vs PBS administered group: FIG. 6 right; for difference of variation in refractive value between lens-worn eyes and control eyes / difference of variation in axial length of the eye between lens-worn eyes and control eyes: 50 μM in PBS; for difference of variation in refractive value between lens-worn eyes and control eyes: FIG. 8A right graph; for difference of variation in axial length of the eye between lens-worn eyes and control eyes: FIG. 8B right graph
Experimental: Specifically, the mouse myopia-induced model is prepared as follows. Because it is easier to induce myopia to a juvenile mouse, it is preferable to mount the minus lens as soon as possible after the weaning. A 3-week-old C57BL6J is used here. The mouse is anesthetized with three types-mixed anesthetic of Domitor (Nippon Zenyaku Kogyo Co., Ltd.), Betorphal (Meiji Seika Pharma Co., Ltd.), and Midazolam (Sandoz K. K.). The skull is then opened with scissors. A post 1 is erected in the skull and fixed with dental cement (Super-Bond, Sun Medical Co., Ltd.). The post is threaded to fix an adjusting instrument described later with a nut.
To induce myopia, −30 diopter (D) minus lens (Rainbow contact, Rainbow Optical Laboratory Co., Ltd.) 2 is mounted on one side, and 0 D lens or only frame 3 is mounted on the other side as a control. A protector 4 having a laterally projected shape is mounted to a frame part in the lower portion of the lens to prevent the mouse from damaging the lens with its forelegs or the like when mounting the lens to the mouse. The protector 4 prevents the mouse from touching the lens, causing no damages on the lens. The protector 4 used here is in the form mounted to the frame part and integrated with it, although it needs not be integrated with the lens as long as the mouse behavior will not damage the lens.
An adjusting instrument 5 is bonded to a frame part in the upper portion of the lens to adjust the width and angle of the mounted lens in response to the growth of the mouse. The adjusting instrument 5 is folded in a dog leg shape. The adjusting instrument 5 includes one side mounted with the lens and the other side provided with a slot 6 for mounting the adjusting instrument 5 to the post 1 erected in the head. Putting the post 1 over the slot 6 and screwing it with a nut 7 can adhere and fix the adjusting instrument 5 to the skin without compressing the periphery of both eyes of the mouse.
An adjustment mechanism including three parts of the post 1, the nut 7, and the adjusting instrument 5 can adjust the width and angle to bring the lens to the mouse eye position in response to the growth of the mouse. Further, because the lens is detachable, it is possible to measure the change over time of the axial length of the eye and the refractive value.
The left eye was worn with only a frame as a control and the right eye was worn with a −30 D lens for three weeks. The refractive value, the axial length of the eye, and the sclera thickness were measured to find the differences between before and after wearing them. The refractive value was measured with a refractometer (Infrared photorefractor for mice, made by Proffesor Schaeffel, University of Tubingen). The axial length of the eye was measured with an SD-OCT (Spectral-Domain Optical Coherence Tomography, Envisu R4310, Bioptigen Inc.). The sclera thickness was measured by obtaining an optical image of a hematoxylin and eosin (HE) stained paraffin piece by an optical microscope (BX53, Olympus Corporation) and then using an imaging software cellSens. The results were analyzed with ANOVA, Turky HSD.
Then, an analysis was conducted to check for suppression of myopia induction by administration of endoplasmic reticulum stress suppressant. […] Note that only phosphate-buffered saline (PBS) was administered to the control group.

mouse eye = assay: Induction of myopia by eye drop of endoplasmic reticulum stress inducer; type: in vivo, C57BL6J mouse; details: single eye drop, right eye, one week after administration, FIG. 7
Experimental: Because the endoplasmic reticulum stress suppressant has a suppression effect on myopia induction as describe above, it is considered that the endoplasmic reticulum stress directly participates in myopia induction. Then, an analysis was conducted to check for induction of myopia by administration of an agent for inducing endoplasmic reticulum stress. The subject was a 3-week-old male C57BL6J mouse (n=12). The right eye of the mouse was administered once by eye drop with 50 μg/ml of tunicamycin (Tm) (Sigma-Aldrich Co. LLC) or 10 μM of thapsigargin (TG) (Wako Pure Chemical Industries, Ltd.), and the left eye was administered once by eye drop with PBS (Veh).

[2] = 0.2% solution in PBS, eye drop once a day, n=4
[3] = 2% solution in PBS, eye drop once a day, n=4
[4] = eye drop once a day, one week, n=3

sodium phenylbutyrate
refractive value variation of lens-worn myopia-induced eyes vs PBS administered group [1, 2]: showed a tendency to suppress changes | axial length of the eye variation of lens-worn myopia-induced eyes vs PBS administered group [1, 2]: showed a tendency to suppress changes | variation in the refractive value, −30 D lens-worn eyes vs only frame-worn eyes ([1]; 200 mg/kg/day intraperitoneal, day 2 to 21 after wearing the lens, measured on day 21, FIG. 4A): no changes were recognized in the refractive value | changes in the axial length of the eye, minus lens-worn eyes vs only frame-worn eyes ([1]; 200 mg/kg/day intraperitoneal, day 2 to 21 after wearing the lens, measured on day 21, FIG. 4B): no difference was recognized in the extension | extension of the normal axial length of the eye associated with the growth ([1]; 200 mg/kg/day intraperitoneal, one week and three weeks after wearing the lens, FIG. 4C): does not affect the extension of the normal axial length of the eye associated with the growth | refractive value variation of lens-worn myopia-induced eyes vs PBS administered group [1, 3]: significant differences were recognized | axial length of the eye variation of lens-worn myopia-induced eyes vs PBS administered group [1, 3]: significant differences were recognized

C/C=C(/C)C(=O)O[C@H]1C(C)=C2[C@H]([C@@H]1OC(=O)CCCCCCC)[C@@](C)(OC(C)=O)C[C@H](OC(=O)CCC)[C@@]1(O)[C@H]2OC(=O)[C@@]1(C)O [thapsigargin]
axial length of the eye variation vs PBS administered eyes (myopia induction) (mouse eye; 10 μM): significant differences were recognized | refractive value variation vs PBS administered eyes (myopia induction) (mouse eye; 10 μM): significant differences were recognized

Cc1c(O)cccc1C(=O)N[C@@H](CSc1ccccc1)[C@H](O)CN1C[C@H]2CCCC[C@H]2C[C@H]1C(=O)NC(C)(C)C [Nelfinavir]
difference of variation in refractive value between lens-worn eyes and control eyes [1, 4]: significant decrease in difference of variation | difference of variation in axial length of the eye between lens-worn eyes and control eyes [1, 4]: significant decrease in difference of variation

O=S(=O)(N=Cc1c(O)ccc2ccccc12)c1cccs1 [STF-083010]
refractive value variation, lens-worn eye against lens-unworn control eye ([1]; 60 μM in PBS, eye drop once a day, one week, n=3, FIG. 8A): showed significant changes | axial length of the eye variation, lens-worn eye against lens-unworn control eye ([1]; 60 μM in PBS, eye drop once a day, one week, n=3, FIG. 8B): showed significant changes

tunicamycin
axial length of the eye variation vs PBS administered eyes (myopia induction) (mouse eye; 50 μg/ml): significant differences were recognized | refractive value variation vs PBS administered eyes (myopia induction) (mouse eye; 50 μg/ml): significant differences were recognized

Cc1cccc(CC(=O)N2CCc3c2ccc(-c2cn(C)c4ncnc(N)c24)c3F)n1 [GSK2656157]
difference of variation in refractive value between lens-worn eyes and control eyes [1, 4]: significant decrease in difference of variation | difference of variation in axial length of the eye between lens-worn eyes and control eyes [1, 4]: significant decrease in difference of variation

C[C@H](CCC(=O)NCCS(=O)(=O)O)[C@H]1CC[C@H]2[C@@H]3[C@@H](O)C[C@@H]4C[C@H](O)CC[C@]4(C)[C@H]3CC[C@]12C [tauroursodeoxycholic acid, Tauroursodeoxycholic acid]
changes in the refractive value, −30 D lens-worn eyes vs only frame-worn eyes ([1]; 100 mg/kg once a day intraperitoneal, one week after wearing the lens, n=4, FIG. 5 left): no differences were recognized between both types of eyes | changes in the axial length of the eye of myopia-induced eyes vs PBS administered group ([1]; 100 mg/kg once a day intraperitoneal, one week after wearing the lens, n=4, FIG. 5 right): significant changes were recognized in the axial length of the eye
